Assay results as given in patent US9682976B2, “Protein kinase C inhibitors and uses thereof” (Rigel Pharmaceuticals, Inc., priority 2012, dated 2017).
pEC50: −log10 of the molar value.

These molecules were tested on PKC mediated IL-2 production (assay: IL-2 ELISA, human primary T cell, anti CD3+CD28+). Settings: Homo sapiens, T-cell, 24 h, human primary T cells stimulated with αCD3 and αCD28, 24 hours.
Assay type: cell-based
Method in brief: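 Human peripheral blood T cells, pre-expanded with αCD3/αCD28 and IL-2 and then washed free of IL-2, were pre-incubated with compound for 1 h at 37° C. They were then stimulated on plates coated with […] αCD3 and 5 μg/ml αCD28, or with 0.5 ng/ml PMA plus 0.1 uM ionomycin in the counter assay. IL-2 in supernatants was measured by ELISA after 24 h.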

pEC50 | Compound
5.00 to 6.00 | Cc1nnnn1-c1cc(Nc2ncc(F)c(NC3CC(C)(C)N4CCCC4C3C)n2)ccc1F (centres unmarked) [Compound 70, 5-Fluoro-N2-(4-fluoro-3-(5-methyl-1H-tetrazol-1-yl)phenyl)-N4-(octahydro-5,5,8-trimethylindolizin-7-yl)pyrimidine-2,4-diamine]
6.30 to 7.00 | CC1(C)C[C@H](Nc2nc(Nc3ccc(OCC(O)CO)c(-n4cnnn4)c3)ncc2F)C[C@@H]2CCCN21 (stereo partly drawn) [Compound 214, 3-(4-((4-(((7R,8aS)-5,5-dimethyloctahydroindolizin-7-yl)amino)-5-fluoropyrimidin-2-yl)amino)-2-(1H-tetrazol-1-yl)phenoxy)propane-1,2-diol]
6.30 to 7.00 | CC1(C)C[C@H](Nc2nc(Nc3ccc(OCCO)c(C#N)c3)ncc2F)C[C@@H]2CCCN21 [Compound 189, 5-((4-(((7R,8aS)-5,5-dimethyloctahydroindolizin-7-yl)amino)-5-fluoropyrimidin-2-yl)amino)-2-(2-hydroxyethoxy)benzonitrile]
6.30 to 7.00 | CC1(C)CC[C@H]2C[C@@H](Nc3nc(Nc4ccc(OC5CC(O)C5)c(Cl)c4)ncc3F)CCN21 (stereo partly drawn) [Compound 312, 3-(2-Chloro-4-((4-(((7S,8aS)-3,3-dimethyloctahydroindolizin-7-yl)amino)-5-fluoropyrimidin-2-yl)amino)phenoxy)cyclobutan-1-ol]
6.30 to 7.00 | CC1(C)C[C@H](Nc2nc(Nc3ccc(OC4CCNCC4)c(C(F)(F)F)c3)ncc2F)C[C@@H]2CCCN21 [Compound 118, N^4-((7R,8aS)-5,5-dimethyloctahydroindolizin-7-yl)-5-fluoro-N^2-(4-(piperidin-4-yloxy)-3-(trifluoromethyl)phenyl)pyrimidine-2,4-diamine]
> 7.00 | Cc1ccc(Nc2ncc(Cl)c(N[C@@H]3C[C@@H]4CCCN4C(C)(C)C3)n2)cc1C#N [Compound 154, 5-((5-chloro-4-(((7R,8aS)-5,5-dimethyloctahydroindolizin-7-yl)amino)pyrimidin-2-yl)amino)-2-methylbenzonitrile]
6.30 to 7.00 | CC1(C)C[C@H](Nc2nc(Nc3ccc(Br)c(C#N)c3)ncc2F)C[C@@H]2CCCN21 [Compound 180, 2-bromo-5-((4-(((7R,8aS)-5,5-dimethyloctahydroindolizin-7-yl)amino)-5-fluoropyrimidin-2-yl)amino)benzonitrile]
6.00 to 6.30 | CNC(=O)c1ccc(Nc2ncc(F)c(N[C@@H]3C[C@@H]4CCCN4C(C)(C)C3)n2)cc1Cl [Compound 327, 4-(4-((7R,8aS)-octahydro-5,5-dimethylindolizin-7-ylamino)-5-fluoropyrimidin-2-ylamino)-2-chloro-N-methylbenzamide]
6.30 to 7.00 | CC(O)COc1ccc(Nc2ncc(F)c(N[C@@H]3C[C@@H]4CCCN4C(C)(C)C3)n2)cc1C#N (stereo partly drawn) [Compound 201, 5-((4-(((7R,8aS)-5,5-dimethyloctahydroindolizin-7-yl)amino)-5-fluoropyrimidin-2-yl)amino)-2-(2-hydroxypropoxy)benzonitrile]
5.00 to 6.00 | CC1(C)C[C@H](Nc2nc(Nc3ccc(O)c(C#N)c3)ncc2F)C[C@@H]2CCCN21 [Compound 168, 5-((4-(((7R,8aS)-5,5-dimethyloctahydroindolizin-7-yl)amino)-5-fluoropyrimidin-2-yl)amino)-2-hydroxybenzonitrile]
6.30 to 7.00 | COc1cc(Nc2ncc(Cl)c(N[C@@H]3C[C@@H]4CCCN4C(C)(C)C3)n2)cc(OC)c1 [Compound 162, 5-chloro-N2-(3,5-dimethoxyphenyl)-N4-((7R,8aS)-5,5-dimethyloctahydroindolizin-7-yl)pyrimidine-2,4-diamine]
> 7.00 | CC1(C)C[C@H](Nc2nc(Nc3ccc(O[C@@H]4CCNC[C@H]4F)c(C(F)(F)F)c3)ncc2F)C[C@@H]2CCCN21 [Compound 119]
6.30 to 7.00 | CC1(C)C[C@H](Nc2nc(Nc3ccc(NCC(O)CCl)c(C(F)(F)F)c3)ncc2F)C[C@@H]2CCCN21 (stereo partly drawn) [Compound 321, 1-(4-(4-((7R,8aS)-octahydro-5,5-dimethylindolizin-7-ylamino)-5-fluoropyrimidin-2-ylamino)-2-(trifluoromethyl)phenylamino)-3-chloropropa-2-ol]
5.00 to 6.00 | Cn1nnn(-c2cc(Nc3ncc(F)c(N[C@H]4C[C@@H]5CCC(=O)N5C(C)(C)C4)n3)c(F)cc2C2CC2)c1=O (racemic) [Compound 32, 1-(5-(5-fluoro-4-(hexahydro-5,5-dimethylindolizin-3(5H)-one-7-ylamino)pyrimidin-2-ylamino)-2-cyclopropyl-4-fluorophenyl)-4-methyl-1H-tetrazol-5(4H)-one]
6.30 to 7.00 | Cn1nc2n(c1=O)-c1cc(Nc3ncc(F)c(N[C@@H]4C[C@@H]5CCCN5C(C)(C)C4)n3)ccc1OC2 [Compound 291, 5-fluoro-N2-(1H-2,4-dihydron-2-methyl-[1,2,4]triazolo[3,4-c][1,4]benzoxazin-1-one-8-yl)-N4-((7R,8aS)-octahydro-5,5-dimethylindolizin-7-yl)pyrimidine-2,4-diamine]
6.30 to 7.00 | CC1(C)C[C@H](Nc2nc(Nc3ccc(N4CC5(COC5)C4)c(C#N)c3)ncc2F)C[C@@H]2CCCN21 [Compound 101, 5-(4-((7R,8aS)-5,5-dimethyloctahydroindolizin-7-ylamino)-5-fluoropyrimidin-2-ylamino)-2-(2-oxa-6-azaspiro[3.3]heptan-6-yl)benzonitrile]
5.00 to 6.00 | CC1(C)Oc2ccc(Nc3ncc(F)c(N[C@@H]4C[C@@H]5CCCN5C(C)(C)C4)n3)cc2-n2c1nn(C(CO)CCl)c2=O (stereo partly drawn) [Compound 250, 5-fluoro-N2-(1H-2,4-dihydron-4,4-dimethyl-2-(3-chloropropanol-2-yl)[1,2,4]triazolo[3,4-c][1,4]benzoxazin-1-one-8-yl)-N4-((7R,8aS)-octahydro-5,5-dimethylindolizin-7-yl)pyrimidine-2,4-diamine]
> 7.00 | Cn1nnn(-c2cc(Nc3ncc(Cl)c(N[C@@H]4C[C@@H]5CCCN5C(C)(C)C4)n3)c(F)cc2C2CC2)c1=O [Compound 148, 1-(5-((5-chloro-4-(((7R,8aS)-5,5-dimethyloctahydroindolizin-7-yl)amino)pyrimidin-2-yl)amino)-2-cyclopropyl-4-fluorophenyl)-4-methyl-1,4-dihydro-5H-tetrazol-5-one]
> 7.00 | CC1(C)C[C@H](Nc2nc(Nc3ccc(O[C@H]4CCNC[C@@H]4F)c(Cl)c3)ncc2F)C[C@@H]2CCCN21 [Compound 123]
> 7.00 | Cn1nnn(-c2cc(Nc3ncc(F)c(N[C@@H]4C[C@@H]5CCCN5C(C)(C)C4)n3)c(F)cc2Br)c1=O [Compound 91, 1-(5-(4-((7R,8aS)-octahydro-5,5-dimethylindolizin-7-ylamino)-5-fluoropyrimidin-2-ylamino)-2-bromo-4-fluorophenyl)-4-methyl-1H-tetrazol-5(4H)-one]
> 7.00 | Cn1nnn(-c2cc(Nc3ncc(C#N)c(N[C@@H]4C[C@@H]5CCCN5C(C)(C)C4)n3)c(F)cc2C2CC2)c1=O (racemic) [Compound 66, 4-((R/S,S/R)-Octahydro-5,5-dimethylindolizin-7-ylamino)-2-(4-cyclopropyl-2-fluoro-5-(4,5-dihydro-4-methyl-5-oxotetrazol-yl)phenylamino) pyrimidine-5-carbonitrile]
6.30 to 7.00 | COCCOCCOc1ccc(Nc2ncc(F)c(N[C@@H]3C[C@@H]4CCCN4C(C)(C)C3)n2)cc1C#N [Compound 190, 5-((4-(((7R,8aS)-5,5-dimethyloctahydroindolizin-7-yl)amino)-5-fluoropyrimidin-2-yl)amino)-2-(2-(2-methoxyethoxy)ethoxy)benzonitrile]

Same assay, conditions: T-cell, human primary T cells stimulated with αCD3 and αCD28, 24 hours

Compound | pEC50
CC1(C)C[C@H](N(CC(O)CO)c2nc(Nc3ccc(OCC(O)CO)c(C#N)c3)ncc2F)C[C@@H]2CCCN21 (some centres unmarked) [Compound 211] | 5.00 to 6.00
Cn1nc2n(c1=O)-c1cc(Nc3ncc(F)c(N[C@@H]4C[C@@H]5CCCN5C(C)(C)C4)n3)ccc1OC2(CO)CO[Si](C)(C)C(C)(C)C (stereo partly drawn) [Compound 287, 5-fluoro-N2-(1H-2,4-dihydron-4-(hydroxymethyl)-4-(((1,1-dimethylethyl)dimethylsilyl)oxymethyl)-2-methyl-[1,2,4]triazolo[3,4-c][1,4]benzoxazin-1-one-8-yl)-N4-((7R,8aS)-octahydro-5,5-dimethylindolizin-7-yl)pyrimidine-2,4-diamine] | 5.00 to 6.00

Same assay, conditions: human primary T cells stimulated with αCD3 and αCD28, 24 hours

pEC50 | Compound
> 7.00 | COc1cc(Nc2ncc(F)c(N[C@H]3C[C@@H]4CCCN4C(C)(C)C3)n2)cc(-n2nnnc2C)c1 (single isomer, unassigned) [Compound 13, (R/S, S/R, R/R, S/S)-5-fluoro-N4-(octahydro-5,5-dimethylindolizin-7-yl)N2-(3-methoxy-5-(5-methyl-1H-tetrazol-1-yl)phenyl)pyrimidine-2,4-diamine]
5.00 to 6.00 | Cn1nnn(-c2cc(Nc3ncc(F)c(N[C@@H]4CCN5[C@@H](CCC5(C)C)C4)n3)c(F)cc2C2CC2)c1=O (single isomer, unassigned) [Compound 36]
6.30 to 7.00 | Cn1nnn(-c2cc(Nc3ncc(F)c(N[C@@H]4C[C@@H]5CCCN5C(C)(C)C4)n3)c(F)cc2OCCN)c1=O [Compound 228, 1-(2-(2-aminoethoxy)-5-((4-(((7R,8aS)-5,5-dimethyloctahydroindolizin-7-yl)amino)-5-fluoropyrimidin-2-yl)amino)-4-fluorophenyl)-4-methyl-1,4-dihydro-5H-tetrazol-5-one]
6.30 to 7.00 | CC1C(Nc2nc(Nc3cc(OC(F)F)c(C4CC4)cc3F)ncc2F)CC(C)(C)N2CCCC12 (centres unmarked) [Compound 75]
6.00 to 6.30 | CC1(C)CC(Nc2nc(Nc3ccc(O[C@H]4CCOC4)c(C#N)c3)ncc2F)CC2CCCN21 (single isomer, unassigned) [Compound 61]
